# Test results published in patent US6066628A, “Non-iron metalloporphyrins and methods of use” (Emory University, priority 1998, dated 2000).
# “And” between values parts separate entries of the source, which are not always exact repeats. Equal values may be shown once. Read-outs that look alike come from different tables or passages of the source.
# Key:
# Y. enterocolitica [1] = assay: microbe, parasite or virus in culture; format: cell-based
# S. aureus [2] = format: cell-based, Staphylococcus aureus
# M. smegmatis [3] = format: cell-based, Mycobacterium smegmatis; settings: for antibacterial activity: M. smegmatis
# [4] = test system: mammalian cells in culture; assay: Cytotoxicity in eukaryotic cell cultures; format: cell-based; settings: human cells in culture
# Y. enterocolitica [5] = assay: Disc diffusion sensitivity test; format: cell-based; settings: disc ~50 μg MP
# N. meningitidis = assay: Disc diffusion sensitivity test; format: cell-based; settings: disc ~50 μg MP
# S. marcescens = assay: Disc diffusion sensitivity test; format: cell-based, Serratia marcescens
# E. coli [6] = assay: Disc diffusion sensitivity test; format: cell-based, Escherichia coli
# P. mirabills = assay: Disc diffusion sensitivity test; format: cell-based, Proteus mirabilis
# K. pneumoniae = assay: Disc diffusion sensitivity test; format: cell-based, Klebsiella pneumoniae
# K. oxytoca = assay: Disc diffusion sensitivity test; format: cell-based, Klebsiella oxytoca
# Ps. aeruginosa = assay: Disc diffusion sensitivity test; format: cell-based, Pseudomonas aeruginosa; settings: disc ~50 μg MP
# C. freundii = assay: Disc diffusion sensitivity test; format: cell-based, Citrobacter freundii
# E. aerogenes = assay: Disc diffusion sensitivity test; format: cell-based, Enterobacter aerogenes
# F. menigosepticum = assay: Disc diffusion sensitivity test; format: cell-based, Flavobacterium meningosepticum
# S. aureus [7] = assay: Disc diffusion sensitivity test; format: cell-based, Staphylococcus aureus
# B. subtilis = assay: Disc diffusion sensitivity test; format: cell-based, Bacillus subtilis; settings: B. subtilis; disc ~50 μg MP
# S. pyogenes A = assay: Disc diffusion sensitivity test; format: cell-based, Streptococcus pyogenes; settings: disc ~50 μg MP
# E. faecalis = assay: Disc diffusion sensitivity test; format: cell-based, Enterococcus faecalis; settings: disc ~50 μg MP
# M. smegmatis [8] = assay: Disc diffusion sensitivity test; format: cell-based, Mycobacterium smegmatis; settings: disc ~50 μg MP
# M. bovis = format: cell-based, Mycobacterium bovis; settings: disc ~50 μg MP
# M tuber. H37Rv = assay: Disc diffusion sensitivity test; format: cell-based, Mycobacterium tuberculosis; settings: disc ~50 μg MP
# M tuber. H37Pa = assay: Disc diffusion sensitivity test; format: cell-based, Mycobacterium tuberculosis; settings: disc ~50 μg MP
# S. crevisieae = assay: Disc diffusion sensitivity test; format: cell-based, Saccharomyces cerevisiae; settings: S. cerevisiae; disc ~50 μg MP
# Staphylococcus carnosus = assay: Disc diffusion sensitivity test; format: cell-based; settings: 50 μg disc
# Staphylococcus xylolus = assay: Disc diffusion sensitivity test; format: cell-based; settings: 50 μg disc
# Y. pseudotuberculosis = format: cell-based
# Neisseria meningitidis = assay: Minimal inhibitory concentration; format: cell-based
# Bacillus subtilis = assay: Minimal inhibitory concentration; format: cell-based
# [9] = test system: Streptococcus pyogenes JRS4; format: cell-based
# [10] = test system: Mycobacterium bovis (BCG); format: cell-based
# E. coli [11] = format: cell-based, Escherichia coli; settings: E. coli DH-5 alpha hemA (Table 6)
# E. coli EB53 (hemPR^+) = assay: Growth inhibition on Nutrient Broth Dipyridyl plates; settings: NBD 0.1 mM plates
# patients = patients with compromised kidney function, high dosages; cited from earlier work
smiles,measurement,setting,value
"C=Cc1c(C)c2[n]3c1C=C1N=C(C=c4c(C)c(C(=O)O)c([n]4[Ga]3[Cl])=C(CC(=O)O)C3=NC(=C2)C(C)C3CCC(=O)O)C(CC)=C1C (centres unmarked) [GA-Ce6, Ga-chlorin e6]",antibacterial activity,Y. enterocolitica [1],significantly less active
same,MIC,Y. enterocolitica [1]; in µg/mL,5 and 10
same,antibacterial activity,S. aureus [2]; S. aureus,active
same,MIC,"S. aureus [2]; S. aureus IR2419, dark (Table 10)",3.2 µg/mL
same,antibacterial activity,M. smegmatis [3],active
same,MIC,"M. smegmatis [3]; M. smegmatis LR222, dark (Table 10)",0.4 µg/mL
same,cytotoxicity,[4],cytotoxic to human cells in culture
"C=CC1=C(C)c2cc3[n-]c(cc4[n-]c(cc5nc(cc1n2)C(C)=C5C=C)c(C)c4CCC(=O)[O-])c(CCC(=O)[O-])c3C.[H+].[H+].[Mn+2] [Mn-PPIX, Manganese protoporphyrin IX]",diameter (mm) of the inhibition zone,Y. enterocolitica [5],30 mm
same,diameter (mm) of the inhibition zone,N. meningitidis,18 mm
same,diameter (mm) of the inhibition zone,"S. marcescens; S. marcescens, disc ~50 μg MP",-
same,sensitive strains / strains tested (inhibition zones larger or equal 20 mm),"S. marcescens; Serratia marcescens, 50 μg disc",2/3
same,diameter (mm) of the inhibition zone,"E. coli [6]; E. coli, disc ~50 μg MP",-
same,sensitive strains / strains tested (inhibition zones larger or equal 20 mm),"E. coli [6]; Escherichia coli, 50 μg disc",16/18
same,diameter (mm) of the inhibition zone,"P. mirabills; P. mirabilis, disc ~50 μg MP",22 mm
same,sensitive strains / strains tested (inhibition zones larger or equal 20 mm),"P. mirabills; Proteus mirabilis, 50 μg disc",2/2
same,diameter (mm) of the inhibition zone,"K. pneumoniae; K. pneumoniae, disc ~50 μg MP",-
same,sensitive strains / strains tested (inhibition zones larger or equal 20 mm),"K. pneumoniae; Klebsiella pneumoniae, 50 μg disc",9/13
same,diameter (mm) of the inhibition zone,"K. oxytoca; K. oxytoca, disc ~50 μg MP",-
same,sensitive strains / strains tested (inhibition zones larger or equal 20 mm),"K. oxytoca; Klebsiella oxytoca, 50 μg disc",1/1
same,diameter (mm) of the inhibition zone,Ps. aeruginosa,-
same,diameter (mm) of the inhibition zone,"C. freundii; C. freundii, disc ~50 μg MP",22 mm
same,sensitive strains / strains tested (inhibition zones larger or equal 20 mm),"C. freundii; Citrobacter freundii, 50 μg disc",4/4
same,diameter (mm) of the inhibition zone,"E. aerogenes; E. aerogenes, disc ~50 μg MP",-
same,sensitive strains / strains tested (inhibition zones larger or equal 20 mm),"E. aerogenes; Enterobacter aerogenes, 50 μg disc",1/1
same,diameter (mm) of the inhibition zone,"F. menigosepticum; F. meningosepticum, disc ~50 μg MP",17 mm
same,sensitive strains / strains tested (inhibition zones larger or equal 20 mm),"F. menigosepticum; Flavobacterium meningosepticum, 50 μg disc",1/1
same,diameter (mm) of the inhibition zone,"S. aureus [7]; S. aureus, disc ~50 μg MP",23 mm
same,sensitive strains / strains tested (inhibition zones larger or equal 20 mm),"S. aureus [7]; Staphylococcus aureus, 50 μg disc",9/9
same,diameter (mm) of the inhibition zone,B. subtilis,25 mm
same,diameter (mm) of the inhibition zone,S. pyogenes A,-
same,diameter (mm) of the inhibition zone,E. faecalis,-
same,diameter (mm) of the inhibition zone,M. smegmatis [8],25 mm
same,diameter (mm) of the inhibition zone,M. bovis,35 mm
same,diameter (mm) of the inhibition zone,M tuber. H37Rv,-
same,diameter (mm) of the inhibition zone,M tuber. H37Pa,-
same,diameter (mm) of the inhibition zone,S. crevisieae,-
same,sensitive strains / strains tested (inhibition zones larger or equal 20 mm),Staphylococcus carnosus,1/1
same,sensitive strains / strains tested (inhibition zones larger or equal 20 mm),Staphylococcus xylolus,1/1
same,Minimal inhibitory concentration (MIC),Y. enterocolitica [1],0.4
same,antibacterial activity,Y. enterocolitica [1],inhibitory
same,MIC,S. aureus [2]; S. aureus 8325-4 (Table 4),1 µg/mL
same,MIC,"S. aureus [2]; S. aureus 8325-4 (Table 6), in µg/mL",3
same,MIC,"S. aureus [2]; S. aureus 8325-4, 20 to 24 hours (Table 5)",3 µg/mL
same,Minimal inhibitory concentration (MIC),"S. aureus [2]; methicillin-resistant S. aureus IR219, Nutrient broth (Table 2)",3.2 µg/mL
same,antibacterial activity,M. smegmatis [3],inhibitory
same,MIC,M. smegmatis [3]; M. smegmatis LR222 (Table 4),0.5 µg/mL
same,Minimal inhibitory concentration (MIC),"M. smegmatis [3]; M. smegmatis LR222, LB + Tween 80 (Table 2)",0.8 µg/mL
same,MIC,Y. pseudotuberculosis; Y. pseudotuberculosis YP66 (Table 4),< 0.1 µg/mL
same,MIC,"Y. pseudotuberculosis; Y. pseudotuberculosis YP66 (Table 6), in µg/mL",1-2
same,MIC,"Y. pseudotuberculosis; Y. pseudotuberculosis, iron restricted NBD 0.1 mM, 20 to 24 hours (Table 5)",1 to 2 µg/mL
same,MIC,"Neisseria meningitidis; N. meningitidis IR1072, 20 to 24 hours (Table 5)",2 µg/mL
same,MIC,Neisseria meningitidis; Neisseria meningitidis (Table 4),2 µg/mL
same,MIC,"Bacillus subtilis; B. subtilis 3G18, 20 to 24 hours (Table 5)",1 µg/mL
same,MIC,Bacillus subtilis; Bacillus subtilis (Table 4),1 µg/mL
same,sensitivity,[9]; S. pyogenes,resistant
same,MIC,[9]; S. pyogenes JRS4 (Table 4),> 4 µg/mL
same,MIC,"[9]; S. pyogenes JRS4, 20 to 24 hours (Table 5)",> 4 µg/mL
same,MIC,[10]; M. bovis (BCG) (Table 4),0.8 µg/mL
same,MIC,"[10]; M. bovis (BCG), two weeks (Table 5)",0.8 µg/mL
same,MIC,E. coli [11],> 10 µg/mL
same,inhibition of growth,E. coli EB53 (hemPR^+),inhibited growth
"O=[N+]([O-])[O-].O=[N+]([O-])[O-].O=[N+]([O-])[O-].[Ga+3] [gallium nitrate, Gallium nitrate]",major complication of treatment,patients,Reversible nephrotoxicity
